{"source": "patent US8017782B2", "about": "“4-phenyl-5-oxo-1,4,5,6,7,8-hexahydroquinoline derivatives as medicaments for the treatment of infertility” (N.V. Organon, priority 2005, dated 2011)"}
{"molecular_target": "T1, human FSH receptor (Homo sapiens, UniProt P23945)", "T1 construct": "expressed in transfected cells; host or cells: Chinese Hamster Ovary (CHO) cells", "T1 sequence (P23945 18-695)": "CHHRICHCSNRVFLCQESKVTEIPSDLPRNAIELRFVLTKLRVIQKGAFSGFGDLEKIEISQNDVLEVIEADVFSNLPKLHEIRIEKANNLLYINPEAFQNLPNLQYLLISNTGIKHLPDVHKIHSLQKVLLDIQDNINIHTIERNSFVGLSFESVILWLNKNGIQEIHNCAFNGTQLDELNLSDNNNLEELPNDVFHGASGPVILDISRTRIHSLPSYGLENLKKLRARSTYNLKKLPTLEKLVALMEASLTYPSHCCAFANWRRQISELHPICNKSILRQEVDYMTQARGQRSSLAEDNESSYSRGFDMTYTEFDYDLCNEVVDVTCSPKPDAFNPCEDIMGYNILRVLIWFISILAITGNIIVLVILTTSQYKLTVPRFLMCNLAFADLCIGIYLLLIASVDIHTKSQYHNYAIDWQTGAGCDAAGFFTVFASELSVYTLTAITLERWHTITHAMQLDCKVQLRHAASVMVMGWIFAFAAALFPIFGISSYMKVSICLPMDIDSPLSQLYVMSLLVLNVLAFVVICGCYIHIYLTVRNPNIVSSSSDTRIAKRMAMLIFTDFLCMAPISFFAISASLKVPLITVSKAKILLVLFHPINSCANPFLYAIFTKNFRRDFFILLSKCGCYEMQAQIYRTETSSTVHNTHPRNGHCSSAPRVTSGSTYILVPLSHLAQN", "experiment": "Agonistic activity at the human FSH receptor expressed in CHO cells (CRE-luciferase reporter)", "type": "cell-based", "conditions": "CHO cells stably transfected with human FSH receptor and CRE/luciferase reporter; tested 0.1 nM to 10 μM; read-out: EC50 (concentration of test compound causing half-maximal (50%) luciferase stimulation)", "experimental": "Agonistic Activity of Compounds at the Human FSH Receptor Expressed in CHO Cells\nAgonist activity of the compounds at the human FSH receptor was tested in Chinese Hamster Ovary (CHO) cells stably transfected with the human FSH receptor and cotransfected with a cAMP responsive element (CRE)/promotor directing the expression of a firefly luciferase reporter gene. Binding of the compound to the Gs-coupled FSH receptor will result in an increase of cAMP, which in turn will induce an increased transactivation of the luciferase reporter construct. The luciferase activity was quantified using a luminescence counter. The compounds were tested in the concentration range of 0.1 nM to 10 μM. This assay was used to determine the EC50 (concentration of test compound causing half-maximal (50%) luciferase stimulation) and efficacy of the compounds compared to recombinant human FSH. For this, the software program XLfit (Excel version 2.0, built 30, ID Business Solutions Limited) was used.", "units": {"EC50": "nM"}}
{"smiles": "CCCC1CC(=O)C2=C(C1)NC(C)=C(C#N)C2c1cc(Br)c(OCCO)c(S(=O)(=O)N(C)C)c1", "note": "(centres unmarked) [Example 26, 3-Bromo-5-(3-cyano-2-methyl-5-oxo-7-propyl-1,4,5,6,7,8-hexahydro-quinolin-4-yl)-2-(2-hydroxy-ethoxy)-N,N-dimethyl-benzenesulfonamide]", "EC50": "< 10"}
{"smiles": "CCCC1CC(=O)C2=C(C1)NC(C)=C(C#N)C2c1cc(Br)c(OCC=CCNC(=O)C2CC2)c(OCC)c1", "note": "(centres unmarked) [Example 3, Cyclopropanecarboxylic acid {4-[2-bromo-4-(3-cyano-2-methyl-5-oxo-7-propyl-1,4,5,6,7,8-hexahydro-quinolin-4-yl)-6-ethoxy-phenoxy]-but-2-enyl}-amide]", "EC50": "< 10"}
{"smiles": "CCCC1CC(=O)C2=C(C1)NC(C)=C(C#N)C2c1cc(Br)c(OCCOCCO)c(S(=O)(=O)N(C)C)c1", "note": "(centres unmarked) [Example 23, 3-Bromo-5-(3-cyano-2-methyl-5-oxo-7-propyl-1,4,5,6,7,8-hexahydro-quinolin-4-yl)-2-[2-(2-hydroxy-ethoxy)-ethoxy]-N,N-dimethyl-benzenesulfonamide]", "EC50": "< 10"}
{"smiles": "CCCC1CC(=O)C2=C(C1)NC(C)=C(C#N)C2c1cc(Br)c(OCC=CCNC(=O)C(C)C)c(OCC)c1", "note": "(centres unmarked) [Example 2, N-{4-[2-Bromo-4-(3-cyano-2-methyl-5-oxo-7-propyl-1,4,5,6,7,8-hexahydro-quinolin-4-yl)-6-ethoxy-phenoxy]-but-2-enyl}-isobutyramide]", "EC50": "< 10"}
{"smiles": "CCCC1CC(=O)C2=C(C1)NC(C)=C(C#N)C2c1cc(Br)c(OCCOC)c(S(=O)(=O)N(C)C)c1", "note": "(centres unmarked) [Example 29, 3-Bromo-5-(3-cyano-2-methyl-5-oxo-7-propyl-1,4,5,6,7,8-hexahydro-quinolin-4-yl)-2-(2-methoxy-ethoxy)-N,N-dimethyl-benzenesulfonamide]", "EC50": "< 10"}
{"smiles": "CCCC1CC(=O)C2=C(C1)NC(C)=C(C#N)C2c1cc(Br)c(OCC=CCO)c(OCC)c1", "note": "(centres unmarked) [Example 28, 4-[3-Bromo-5-ethoxy-4-(4-hydroxy-but-2-enyloxy)-phenyl]-2-methyl-5-oxo-7-propyl-1,4,5,6,7,8-hexahydro-quinoline-3-carbonitrile]", "EC50": "< 10"}
{"smiles": "CCCC1CC(=O)C2=C(C1)NC(C)=C(C#N)C2c1cc(Br)c(OCC=CC(=O)NCc2ccccn2)c(OCC)c1", "note": "(centres unmarked) [Example 12, 4-[2-Bromo-4-(3-cyano-2-methyl-5-oxo-7-propyl-1,4,5,6,7,8-hexahydro-quinolin-4-yl)-6-ethoxy-phenoxy]-but-2-enoic acid (pyridin-2-ylmethyl)-amide]", "EC50": "< 10"}
{"smiles": "CCCC1CC(=O)C2=C(C1)NC(C)=C(C#N)C2c1cc(Br)c(OCCOCCNC(=O)C2CC2)c(OCC)c1", "note": "(centres unmarked) [Example 22, Cyclopropanecarboxylic acid (2-{2-[2-bromo-4-(3-cyano-2-methyl-5-oxo-7-propyl-1,4,5,6,7,8-hexahydro-quinolin-4-yl)-6-ethoxy-phenoxy]-ethoxy}-ethyl)-amide]", "EC50": "< 10"}
{"smiles": "CCCC1CC(=O)C2=C(C1)NC(C)=C(C#N)C2c1cc(Br)c(OCC=CCNC(=O)COC)c(OCC)c1", "note": "(centres unmarked) [Example 5, N-{4-[2-Bromo-4-(3-cyano-2-methyl-5-oxo-7-propyl-1,4,5,6,7,8-hexahydro-quinolin-4-yl)-6-ethoxy-phenoxy]-but-2-enyl}-2-methoxy-acetamide]", "EC50": "< 10"}
{"smiles": "CCCC1CC(=O)C2=C(C1)NC(C)=C(C#N)C2c1cc(Br)c(OCCOCCOC)c(S(=O)(=O)N(C)C)c1", "note": "(centres unmarked) [Example 30, 3-Bromo-5-(3-cyano-2-methyl-5-oxo-7-propyl-1,4,5,6,7,8-hexahydro-quinolin-4-yl)-2-[2-(2-methoxy-ethoxy)-ethoxy]-N,N-dimethyl-benzenesulfonamide]", "EC50": "< 10"}
{"smiles": "CCCC1CC(=O)C2=C(C1)NC(C)=C(C#N)C2c1cc(Br)c(OCC=CCNC(=O)OCC)c(OCC)c1", "note": "(centres unmarked) [Example 6, {4-[2-Bromo-4-(3-cyano-2-methyl-5-oxo-7-propyl-1,4,5,6,7,8-hexahydro-quinolin-4-yl)-6-ethoxy-phenoxy]-but-2-enyl}-carbamic acid ethyl ester]", "EC50": "< 10"}
{"smiles": "CCCC1CC(=O)C2=C(C1)NC(C)=C(C#N)C2c1cc(Br)c(NCCOC)c(S(=O)(=O)N2CCCC2)c1", "note": "(centres unmarked) [Example 32, 4-[3-Bromo-4-(2-methoxy-ethylamino)-5-(pyrrolidine-1-sulfonyl)-phenyl]-2-methyl-5-oxo-7-propyl-1,4,5,6,7,8-hexahydro-quinoline-3-carbonitrile]", "EC50": "< 10"}
{"smiles": "CCCC1CC(=O)C2=C(C1)NC(C)=C(C#N)C2c1cc(Br)c(OCCCCCNC(=O)COC)c(OCC)c1", "note": "(centres unmarked) [Example 17, N-{5-[2-Bromo-4-(3-cyano-2-methyl-5-oxo-7-propyl-1,4,5,6,7,8-hexahydro-quinolin-4-yl)-6-ethoxy-phenoxy]-pentyl}-2-methoxy-acetamide]", "EC50": "< 10"}
{"smiles": "CCCC1CC(=O)C2=C(C1)NC(C)=C(C#N)C2c1cc(Br)c(NCCOC)c(S(=O)(=O)N2CCOCC2)c1", "note": "(centres unmarked) [Example 31, 4-[3-Bromo-4-(2-methoxy-ethylamino)-5-(morpholine-4-sulfonyl)-phenyl]-2-methyl-5-oxo-7-propyl-1,4,5,6,7,8-hexahydro-quinoline-3-carbonitrile]", "EC50": "< 10"}
{"smiles": "CCCC1CC(=O)C2=C(C1)NC(C)=C(C#N)C2c1cc(Br)c(OCCCCCCNS(=O)(=O)C(C)C)c(OCC)c1", "note": "(centres unmarked) [Example 20, Propane-2-sulfonic acid {6-[2-bromo-4-(3-cyano-2-methyl-5-oxo-7-propyl-1,4,5,6,7,8-hexahydro-quinolin-4-yl)-6-ethoxy-phenoxy]-hexyl}-amide]", "EC50": "< 10"}
{"smiles": "CCCC1CC(=O)C2=C(C1)NC(C)=C(C#N)C2c1cc(Br)c(OCCCCNC(=O)C(C)C)c(OCC)c1", "note": "(centres unmarked) [Example 13, N-{4-[2-Bromo-4-(3-cyano-2-methyl-5-oxo-7-propyl-1,4,5,6,7,8-hexahydro-quinolin-4-yl)-6-ethoxy-phenoxy]-butyl}-isobutyramide]", "EC50": "< 10"}
{"smiles": "CCCC1CC(=O)C2=C(C1)NC(C)=C(C#N)C2c1cc(Br)c(OCCOCCO)c(OC(C)C)c1", "note": "(centres unmarked) [Example 24, 4-{3-Bromo-4-[2-(2-hydroxy-ethoxy)-ethoxy]-5-isopropoxy-phenyl}-2-methyl-5-oxo-7-propyl-1,4,5,6,7,8-hexahydro-quinoline-3-carbonitrile]", "EC50": "< 10"}
